# “And” between values parts separate entries of the source, which are not always exact repeats. Equal values may be shown once. Where a name gives a salt, the structure may show the parent alone.
# Experiments:
# [1] = test system: membrane component of rat renal cortex; test: Biological activity (cAMP generation, radioimmunoassay) by parallel test against bovine-PTH (1-84) standard; format: biochemical
# Text: Biological activity of teriparatide acetate unit can be determined by a parallel test wherein reacting a membrane component of rat renal cortex with teriparatide acetate and assaying generated cAMP by radioimmunoassay. The specific activity of teriparatide acetate is 3,300 units/mg by a parallel test using the standard substance of bovine-PTH (1-84).
# urinary NAG [2] = test: Urinary NAG response to intravenous h-PTH(1-34) in healthy male volunteers (Referential Example); format: in vivo
# Protocol: Method: Fourteen (14) healthy male volunteers were used.
# Prior to 60 minutes for intravenous administration of h-PTH(1-34) 100 units, complete excretion of urine was performed. 200 ml of drinking water was given to the individual volunteers and urine was collected immediately before administration of […]. Then, h-PTH(1-34) 100 units were administered intravenously and 200 ml of drinking water was given to the volunteers, and after 60 minutes urine was again collected. Each of urinary NAG and creatinine in 0.5 ml of urine was measured, and an increased ratio of urinary excreted NAG was calculated. NAG value was corrected by creatinine value.
# For an assay of NAG, NAG Test Shionogi (Shionogi Pharm. Co., assay method: mcp colorimetry) was used, and for that of creatinine, creatinine-HR (Wako Pure, Chem. Co., assay method: alkali picric acid method) was used. Table 1 illustrates the various parameters, i.e. NAG, AER and serum Cr, in pre- or post-administration of PTH for healthy male volunteers.
# NAG value corrected by creatinine (unit: U/g Cr) is calculated by the equation;
# Urinary NAG (Unit:U/l).div.urinary creatinine (unit:mg/dl)×100.
# The normal range of urinary NAG value after administration of PTH in healthy volunteers is defined according to the results obtained hereinabove as follows. The normal range is calculated by mean ±2 S.D.
# urinary NAG [3] = test: Urinary NAG response to intravenous h-PTH(1-34) in patients with diabetes mellitus having AER below 15 μg/min (Example 2); format: in vivo
# Protocol: The predetermined dose of h-PTH(1-34), for example, is administered intravenously in the patients to carry out the monitoring method of the present invention. The patients are diabetes mellitus patients with an AER value below 15 μg/min., showing latent abnormal renal function without detecting manifestation of abnormal renal function. The h-PTH (1-34) is, for example, administered to these patients. Urinary excreted NAG of the patients can be assayed by hydrolysing a substrate NAG, i.e. sodium-cresol-sulfophthaleinyl-N-acetyl-β-D-glucosaminide (MCP-NAG), by NAG, coloring the thus generated m-cresol purple under alkaline condition by adding sodium carbonate and measuring colorimetrically 580 nm. Urinary NAG value is expressed, for example, as U/l (NAG active unit in one liter of urine). Urinary excreted NAG of the patients before administration of PTH and that after administration of PTH are measured, and an increased ratio of urinary excreted NAG value in the post-administration of PTH against the urinary excreted NAG value in the pre-administration of PTH is calculated.
# Urine of the pre-administration is collected by excretion after accumulating the urine at a constant time interval, preferably 60 min.±10 min., previously after excreting urine in the pre-administration of PTH. Collecting urine is preferably performed immediately before administration of PTH. Urine of the post-administrationis collected after accumulating the urine under the same condition in the pre-administration, i.e. after a constant time interval of 60 min.±10 min., because of performing excretion (collection) of urine immediately before administration of PTH. For effective accumulation of urine, a suitable amount of drinking water, for example 100-300 ml, may be given to the patients. Urinary NAG value can be measured using a specimen of 0.05-1 ml. Since a suitable volume of water is given to the patients, a correction of the NAG value is needed. Accordingly, a parameter of urine volume and concentration, for example another component such as urinary creatinine concentration (expressed as mg/dl) is measured, and NAG value per creatinine value is obtained. A corrected value of NAG for creatinine (Unit: U/g Cr) is calculated by;
# Urinary NAG (U/l ).div.urinary creatinine (mg/dl)×100.
# Method: Eighteen (18) patients with diabetes mellitus having AER within normal range (below 15 μg/min.) were used.
# Sixty minutes prior to intravenous administration of 100 units of h-PTH(1-34), complete excretion of urine was performed. 200 ml of drinking water were given to the individual volunteers and urine was collected immediately before administration of h-PTH(1-34). Then 100 units of h-PTH(1-34) were administered intravenously and 200 ml of drinking water were given for intake, and after 60 minutes urine was collected. Each of urinary NAG and creatinine in 0.5 ml of urine was measured to calculate the increased ratio of urinary excreted NAG. The NAG value was corrected by creatinine value.
# Tables 2 and 3 show the various parameters in pre- and post-administration of PTH for the patients of diabetes mellitus showing the value with the normal range of AER (below 15 μg/min.).
# urinary excretion of NAG = conditions: intravenous; IHP and PHP patients; Calcif. Tissue Int., 45(6):375 (1989); cited from earlier work
# [4] = mean of 14 healthy male volunteers, 100 units i.v., 60 min
# [5] = mean of 18 diabetic patients, 100 units i.v., 60 min
# [6] = of 18 diabetic patients, 100 units i.v.
compound,measurement,setting,value
CC[C@H](C)[C@H](NC(=O)[C@H](CCC(=O)O)NC(=O)[C@H](CO)NC(=O)[C@@H](NC(=O)[C@@H](N)CO)C(C)C)C(=O)N[C@@H](CCC(N)=O)C(=O)N[C@@H](CC(C)C)C(=O)N[C@@H](CCSC)C(=O)N[C@@H](Cc1cnc[nH]1)C(=O)N[C@@H](CC(N)=O)C(=O)N[C@@H](CC(C)C)C(=O)NCC(=O)N[C@@H](CCCCN)C(=O)N[C@@H](Cc1cnc[nH]1)C(=O)N[C@@H](CC(C)C)C(=O)N[C@@H](CC(N)=O)C(=O)N[C@@H](CO)C(=O)N[C@@H](CCSC)C(=O)N[C@@H](CCC(=O)O)C(=O)N[C@@H](CCCN=C(N)N)C(=O)N[C@H](C(=O)N[C@@H](CCC(=O)O)C(=O)N[C@@H](Cc1c[nH]c2ccccc12)C(=O)N[C@@H](CC(C)C)C(=O)N[C@@H](CCCN=C(N)N)C(=O)N[C@@H](CCCCN)C(=O)N[C@@H](CCCCN)C(=O)N[C@@H](CC(C)C)C(=O)N[C@@H](CCC(N)=O)C(=O)N[C@@H](CC(=O)O)C(=O)N[C@H](C(=O)N[C@@H](Cc1cnc[nH]1)C(=O)N[C@@H](CC(N)=O)C(=O)N[C@@H](Cc1ccccc1)C(=O)O)C(C)C)C(C)C [Teriparatide hydrochloride],Specific activity of the bulk used for the injection,"[1]; Example 1, Teriparatide hydrochloride","3,333 teriparatide acetate units/mg"
"h-PTH(1-34): h-PTH(1-34) having molecular weight about 4,400 with 34 imino acids sequence",Urinary excretion of NAG (in words),urinary NAG [2]; administration of human-PTH (1-34) in healthy volunteers,increased urinary excretion of NAG
same,Normal range of increased ratio of urinary NAG in post-administration to pre-administration,"urinary NAG [2]; healthy volunteers, mean ±2 S.D.",2.4-4.7
same,Urinary NAG post-,"urinary NAG [2]; individual healthy male volunteers, 100 units h-PTH(1-34) i.v., urine 60 min after",5.9 U/gCr and 8.6 U/gCr and 10.7 U/gCr and 5.7 U/gCr and 7.3 U/gCr and 11.0 U/gCr and 14.7 U/gCr and 17.0 U/gCr and 10.0 U/gCr and 19.3 U/gCr and 6.4 U/gCr and 8.3 U/gCr and 9.8 U/gCr
same,Urinary NAG changes,"urinary NAG [2]; individual healthy male volunteers, post minus pre, 100 units h-PTH(1-34) i.v., 60 min",4.3 U/gcr and 6.4 U/gcr and 7.4 U/gcr and 4.4 U/gcr and 4.9 U/gcr and 8.1 U/gcr and 9.7 U/gcr and 11.5 U/gcr and 7.3 U/gcr and 15.0 U/gcr and 5.8 U/gcr and 6.3 U/gcr and 6.2 U/gcr
same,Urinary NAG changes in ratio,"urinary NAG [2]; individual healthy male volunteers, post/pre, 100 units h-PTH(1-34) i.v., 60 min",3.8 and 3.9 and 3.3 and 4.4 and 3.1 and 3.7 and 2.9 and 3.6 and 4.1 and 3.4 and 2.8 and 2.6
same,"Urinary NAG changes in ratio (increased ratio post-/pre-administration), mean",urinary NAG [2]; [4],3.5 and 3.5±0.6
same,"Urinary NAG changes, mean",urinary NAG [2]; [4],7.3 U/gcr
same,"Urinary NAG post-, mean",urinary NAG [2]; [4],10.3 U/gCr and 10.3±4.1 U/gCr
same,Urinary NAG post-,"urinary NAG [3]; individual diabetic patients, AER below 15 μg/min, 100 units h-PTH(1-34) i.v., urine 60 min after",7.3 U/gCr and 7.8 U/gCr and 15.6 U/gCr and 7.5 U/gCr and 11.0 U/gCr and 12.2 U/gCr and 6.8 U/gCr and 17.5 U/gCr and 10.1 U/gCr and 15.3 U/gCr and 4.5 U/gCr and 23.9 U/gCr and 13.4 U/gCr and 15.9 U/gCr and 9.7 U/gCr and 6.7 U/gCr and 16.7 U/gCr
same,Urinary NAG changes,"urinary NAG [3]; individual diabetic patients, post minus pre, 100 units h-PTH(1-34) i.v., 60 min",3.4 U/gcr and 3.9 U/gcr and 7.9 U/gcr and 3.7 U/gcr and 7.1 U/gcr and 4.9 U/gcr and 7.5 U/gcr and 5.8 U/gcr and 11.7 U/gcr and 2.2 U/gcr and 12.7 U/gcr and 8.1 U/gcr and 9.3 U/gcr and 5.1 U/gcr
same,Urinary NAG changes in ratio,"urinary NAG [3]; individual diabetic patients, post/pre, 100 units h-PTH(1-34) i.v., 60 min",1.9 and 2.0 and 2.8 and 1.7 and 2.2 and 1.8 and 2.4 and 4.3 and 1.6 and 2.1 and 2.5 and 2.3 and 3.4
same,"Urinary NAG changes in ratio, mean",urinary NAG [3]; [5],2.3
same,"Urinary NAG changes, mean",urinary NAG [3]; [5],6.5 U/gcr
same,"Urinary NAG post-, mean",urinary NAG [3]; [5],11.8 U/gCr
same,Number of patients with normal increased ratio of urinary excreted NAG (2.4-4.7),urinary NAG [3]; [6],6 subjects
same,"Number of patients with significantly decreased increased ratio of urinary NAG (2.3), diagnosed as renal lesion without clinical symptoms of nephropathy",urinary NAG [3]; [6],12 cases
same,Urinary excretion of NAG (in words),urinary excretion of NAG,increased urinary excretion of NAG in only IHP
teriparatide acetate,Specific activity,[1]; parallel test using standard substance of bovine-PTH (1-84),"3,300 units/mg"

# Source: patent US5662604A, “Monitoring method of renal lesions without clinical signs” (Asahi Kasei Kogyo Kabushiki Kaisha, priority 1995, dated 1997)
